{
  "source": "patent US9826734B2",
  "about": "“Etherified lactate esters, method for the production thereof and use thereof for enhancing the effect of plant protecting agents” (Clariant International Ltd., priority 2011, dated 2017)",
  "type_in_all_cases": "physicochemical",
  "key": {"[1]": {"test": "Dynamic surface tension, bubble pressure method (BP2100 tensiometer)", "settings": "surface age 200 milliseconds", "procedure": "The dynamic surface tension was determined via the bubble pressure method (BP2100, tensiometer, Krüss). With a time span relevant for the spray application of agrochemicals in aqueous dilution (referred to as the surface age in the bubble pressure method) of 200 milliseconds, the value of the dynamic surface tension in [mN/m] correlates with the adherence on difficult-to-wet plants such as barley (cereal). A value of 50 mN/m (at 20-21° C.) produces, relative to water (72.8 mN/m), an improvement in the adherence from “zero adherence” to about 50% (Baur P, Pontzen R 2007. Basic features of plant surface wettability and deposit formation and the impact of adjuvants. In: R E Gaskin ed. Proceeding of the 8th International Symposium on Adjuvants for Agrochemicals. Publisher: International Society for Agrochemical Adjuvants (ISAA), Columbus, Ohio, USA). […] The etherified lactate esters are therefore outstandingly suitable for promoting the accommodation of agrochemicals by cereals (with maize, rice, millet), banana, cabbage/oil seed rape, soybean, and other difficult-to-wet crop plants and weed plants. The positive wetting and sticking effects also apply, of course, for other organisms and artificial surfaces and/or technical applications, for the purpose, for instance, of achieving thin coatings on, or cleaning, surfaces."}, "[2]": {"test": "Static surface tension in aqueous systems, Pending Drop Method (DSA10 Goniometer)", "settings": "room temperature (20° C.)"}, "[3]": {"test": "Foam behavior, foam test of CIPAC Method MT47", "settings": "3 g/l, CIPAC D water (342 ppm)", "excerpt": "The important properties of interface-active substances include the foam behavior, particularly in aqueous systems. Virtually all surfactants foam, and the time to collapse of the foam has to be shortened in the case of critical (highly foaming) surfactants through addition of defoamers to formulation or to aqueous use preparation. The foam behavior of certain of the substances of the invention was characterized, using aqueous solutions at a concentration of 3 g/l, by the foam test of CIPAC Method MT47."}},
  "data": [
    {"substance": "2-ethylhexyl lactate 2EO", "values": [
      {"measurement": "Dynamic surface tension", "setting": "[1]; 0.3 g/l in water", "result": 50.9, "unit": "mN/m"},
      {"measurement": "Dynamic surface tension", "setting": "[1]; 3 g/l in water", "result": 26.8, "unit": "mN/m"},
      {"measurement": "Static surface tension", "setting": "[2]; 0.3 g/l in water", "result": 45.34, "unit": "mN/m"},
      {"measurement": "Static surface tension", "setting": "[2]; 3 g/l in water", "result": 28.19, "unit": "mN/m"},
      {"measurement": "Percentage foam volume", "setting": "[3]; 10 s", "result": 5, "unit": "%"},
      {"measurement": "Percentage foam volume", "setting": "[3]; 60 s", "result": 5, "unit": "%"},
      {"measurement": "Percentage foam volume", "setting": "[3]; 3 min", "result": 5, "unit": "%"},
      {"measurement": "Percentage foam volume", "setting": "[3]; 12 min", "result": 5, "unit": "%"}
    ]},
    {"substance": "2-ethylhexyl lactate 2PO/2EO", "values": [
      {"measurement": "Dynamic surface tension", "setting": "[1]; 0.3 g/l in water", "result": 47.8, "unit": "mN/m"},
      {"measurement": "Dynamic surface tension", "setting": "[1]; 3 g/l in water", "result": 30.7, "unit": "mN/m"},
      {"measurement": "Static surface tension", "setting": "[2]; 0.3 g/l in water", "result": 40.40, "unit": "mN/m"},
      {"measurement": "Static surface tension", "setting": "[2]; 3 g/l in water", "result": 29.47, "unit": "mN/m"},
      {"measurement": "Percentage foam volume", "setting": "[3]; 10 s", "result": 2, "unit": "%"},
      {"measurement": "Percentage foam volume", "setting": "[3]; 60 s", "result": 2, "unit": "%"},
      {"measurement": "Percentage foam volume", "setting": "[3]; 3 min", "result": 0, "unit": "%"},
      {"measurement": "Percentage foam volume", "setting": "[3]; 12 min", "result": 0, "unit": "%"}
    ]},
    {"substance": "2-ethylhexyl lactate 2PO/5EO", "values": [
      {"measurement": "Dynamic surface tension", "setting": "[1]; 0.3 g/l in water", "result": 50.7, "unit": "mN/m"},
      {"measurement": "Dynamic surface tension", "setting": "[1]; 3 g/l in water", "result": 29.6, "unit": "mN/m"},
      {"measurement": "Static surface tension", "setting": "[2]; 0.3 g/l in water", "result": 43.35, "unit": "mN/m"},
      {"measurement": "Static surface tension", "setting": "[2]; 3 g/l in water", "result": 28.48, "unit": "mN/m"},
      {"measurement": "Percentage foam volume", "setting": "[3]; 10 s", "result": 25, "unit": "%"},
      {"measurement": "Percentage foam volume", "setting": "[3]; 60 s", "result": 10, "unit": "%"},
      {"measurement": "Percentage foam volume", "setting": "[3]; 3 min", "result": 10, "unit": "%"},
      {"measurement": "Percentage foam volume", "setting": "[3]; 12 min", "result": 10, "unit": "%"}
    ]},
    {"substance": "2-ethylhexyl lactate 2PO/10EO", "values": [
      {"measurement": "Dynamic surface tension", "setting": "[1]; 0.3 g/l in water", "result": 54.2, "unit": "mN/m"},
      {"measurement": "Dynamic surface tension", "setting": "[1]; 3 g/l in water", "result": 37.4, "unit": "mN/m"},
      {"measurement": "Static surface tension", "setting": "[2]; 0.3 g/l in water", "result": 47.43, "unit": "mN/m"},
      {"measurement": "Static surface tension", "setting": "[2]; 3 g/l in water", "result": 36.0, "unit": "mN/m"},
      {"measurement": "Percentage foam volume", "setting": "[3]; 10 s", "result": 50, "unit": "%"},
      {"measurement": "Percentage foam volume", "setting": "[3]; 60 s", "result": 10, "unit": "%"},
      {"measurement": "Percentage foam volume", "setting": "[3]; 3 min", "result": 0, "unit": "%"},
      {"measurement": "Percentage foam volume", "setting": "[3]; 12 min", "result": 0, "unit": "%"}
    ]},
    {"substance": "2-ethylhexyl lactate 5EO", "values": [
      {"measurement": "Dynamic surface tension", "setting": "[1]; 0.3 g/l in water", "result": 54.4, "unit": "mN/m"},
      {"measurement": "Dynamic surface tension", "setting": "[1]; 3 g/l in water", "result": 35.3, "unit": "mN/m"},
      {"measurement": "Static surface tension", "setting": "[2]; 0.3 g/l in water", "result": 48.65, "unit": "mN/m"},
      {"measurement": "Static surface tension", "setting": "[2]; 3 g/l in water", "result": 32.61, "unit": "mN/m"},
      {"measurement": "Percentage foam volume", "setting": "[3]; 10 s", "result": 50, "unit": "%"},
      {"measurement": "Percentage foam volume", "setting": "[3]; 60 s", "result": 40, "unit": "%"},
      {"measurement": "Percentage foam volume", "setting": "[3]; 3 min", "result": 20, "unit": "%"},
      {"measurement": "Percentage foam volume", "setting": "[3]; 12 min", "result": 10, "unit": "%"}
    ]},
    {"substance": "2-ethylhexyl lactate 10EO", "values": [
      {"measurement": "Dynamic surface tension", "setting": "[1]; 0.3 g/l in water", "result": 56.6, "unit": "mN/m"},
      {"measurement": "Dynamic surface tension", "setting": "[1]; 3 g/l in water", "result": 46.6, "unit": "mN/m"},
      {"measurement": "Static surface tension", "setting": "[2]; 0.3 g/l in water", "result": 52.99, "unit": "mN/m"},
      {"measurement": "Static surface tension", "setting": "[2]; 3 g/l in water", "result": 35.18, "unit": "mN/m"},
      {"measurement": "Percentage foam volume", "setting": "[3]; 10 s", "result": 10, "unit": "%"},
      {"measurement": "Percentage foam volume", "setting": "[3]; 60 s", "result": 5, "unit": "%"},
      {"measurement": "Percentage foam volume", "setting": "[3]; 3 min", "result": 5, "unit": "%"},
      {"measurement": "Percentage foam volume", "setting": "[3]; 12 min", "result": 0, "unit": "%"}
    ]},
    {"substance": "2-ethylhexyl lactate 15EO", "values": [
      {"measurement": "Dynamic surface tension", "setting": "[1]; 0.3 g/l in water", "result": 58.6, "unit": "mN/m"},
      {"measurement": "Dynamic surface tension", "setting": "[1]; 3 g/l in water", "result": 48.1, "unit": "mN/m"},
      {"measurement": "Static surface tension", "setting": "[2]; 0.3 g/l in water", "result": 54.33, "unit": "mN/m"},
      {"measurement": "Static surface tension", "setting": "[2]; 3 g/l in water", "result": 42.23, "unit": "mN/m"},
      {"measurement": "Percentage foam volume", "setting": "[3]; 10 s", "result": 0, "unit": "%"},
      {"measurement": "Percentage foam volume", "setting": "[3]; 60 s", "result": 0, "unit": "%"},
      {"measurement": "Percentage foam volume", "setting": "[3]; 3 min", "result": 0, "unit": "%"},
      {"measurement": "Percentage foam volume", "setting": "[3]; 12 min", "result": 0, "unit": "%"}
    ]},
    {"substance": "Lauryl lactate 5EO/2PO", "values": [
      {"measurement": "Dynamic surface tension", "setting": "[1]; 0.3 g/l in water", "result": 51.9, "unit": "mN/m"},
      {"measurement": "Dynamic surface tension", "setting": "[1]; 3 g/l in water", "result": 37.4, "unit": "mN/m"},
      {"measurement": "Static surface tension", "setting": "[2]; 0.3 g/l in water", "result": 31.63, "unit": "mN/m"},
      {"measurement": "Static surface tension", "setting": "[2]; 3 g/l in water", "result": 31.34, "unit": "mN/m"}
    ]},
    {"substance": "Lauryl lactate 5EO/5PO", "values": [
      {"measurement": "Dynamic surface tension", "setting": "[1]; 0.3 g/l in water", "result": 52.7, "unit": "mN/m"},
      {"measurement": "Dynamic surface tension", "setting": "[1]; 3 g/l in water", "result": 36.5, "unit": "mN/m"},
      {"measurement": "Static surface tension", "setting": "[2]; 0.3 g/l in water", "result": 31.65, "unit": "mN/m"},
      {"measurement": "Static surface tension", "setting": "[2]; 3 g/l in water", "result": 30.14, "unit": "mN/m"}
    ]},
    {"substance": "Lauryl lactate 8EO/2PO", "values": [
      {"measurement": "Dynamic surface tension", "setting": "[1]; 0.3 g/l in water", "result": 54.3, "unit": "mN/m"},
      {"measurement": "Dynamic surface tension", "setting": "[1]; 3 g/l in water", "result": 37.7, "unit": "mN/m"},
      {"measurement": "Static surface tension", "setting": "[2]; 0.3 g/l in water", "result": 30.76, "unit": "mN/m"},
      {"measurement": "Static surface tension", "setting": "[2]; 3 g/l in water", "result": 30.71, "unit": "mN/m"}
    ]},
    {"substance": "Lauryl lactate 8EO/5PO", "values": [
      {"measurement": "Dynamic surface tension", "setting": "[1]; 0.3 g/l in water", "result": 50.9, "unit": "mN/m"},
      {"measurement": "Dynamic surface tension", "setting": "[1]; 3 g/l in water", "result": 36.2, "unit": "mN/m"},
      {"measurement": "Static surface tension", "setting": "[2]; 0.3 g/l in water", "result": 31.38, "unit": "mN/m"},
      {"measurement": "Static surface tension", "setting": "[2]; 3 g/l in water", "result": 31.51, "unit": "mN/m"}
    ]}
  ]
}
